This note sets out measurements from patent US5747239A, “Synthetic peptides specific for the detection of antibodies to HCV, diagnosis of HCV infection and preventions thereof as vaccines” (United Biomedical, Inc., priority 1994, dated 1998).

Type in all cases: binding, human
The test system of assay [1] is antibodies to HCV. Put plainly: Envelope/NS-1 peptide ELISA, anti-HCV positive plasmapheresis donors with elevated ALT (Panel III). The note with it: for % Relative Immunoreactivity: envelope/NS-1 peptides, Panel III (17 samples), peptide 254B as a standard. The procedure:
To select a panel of samples with reactivity to peptides from the envelope/NS-1 region, 97 such samples from anti-HCV positive plasmapheresis donors with elevated ALT levels were tested with peptide 254B. […] 17 samples with the greatest reactivity with peptide 254B were chosen to form a third panel (Panel III) to screen for the immunoreactivity of the other 20 peptides from the envelope/NS-1 region. The individual absorbance values of each of the 17 samples on the four peptides with the greatest reactivity, i.e. 255C (pep7), 254B (pep8), 247B (pep9), and 246D (pep10), are listed in Table 8b.

Assay [2] has as its system antibodies to HCV. Put plainly: Envelope/NS-1 peptide ELISA, samples nonreactive on HCV core (VIIIE) and NS-4 (IIH) peptides. How it is done:
In addition to screening on Panel III samples, the envelope/NS-1 peptides were also tested against samples from plasmapheresis donors who had elevated ALT levels but were non-reactive on the HCV from the core (e.g. peptide VIIIE) and NS-4 (e.g. peptide IIH) regions screening EIA. Six of these samples, which may represent early seroconversion samples, were reactive on one or more envelope/NS-1 peptide (Table 8d). The absorbance values on these HCV EIA nonreactive samples are lower than the values found for Panel III samples. In the case of Pep7 and Pep10, their shorter segments, 225B and 246C, respectively, gave greater immunoreactivity, in contrast to the performance on Panel III.
On the technique in general: In an ELISA, binding on a coated surface is turned into a signal by an enzyme label.

In assay [3] the test system is antibodies to HCV. Put plainly: Peptide ELISA for relative immunoreactivity, 8 member HCV serum panel (Panel I). Further details: relative immunoreactivity value: concentration or dose not given beside the values. The note with it: for % IP: NS-5 peptides (Table 12), pep11 as a standard. The procedure: As an example to illustrate how relative (%) immunoreactivity for HCV synthetic peptides is measured, wells of 96-well plates are coated for 1 hour at 37° C., with each of the following peptides: IIH, V, VIIIE and pep11 at 5 ug/mL at 100 uL per well in 10 mM NaHCO3 buffer, pH 9.5. The peptide coated wells were then incubated with 250 uL of 3% by weight of gelatin in PBS in 37° C. for 1 hour to block non-specificprotein binding sites, followed by three washes with PBS containing 0.05% by volume of TWEEN 20 and then dried. The test specimens containing a panel of eight well-characterized HCV antibody positive patient sera were diluted with PBS containing 20% by volume normal goat serum, 1% by weight gelatin and 0.05% by volume TWEEN 20 at dilutions of 1:20 volume to volume, respectively. 200 uL of the diluted specimens were added to each of the wells and allowed to react for 15 minutes at 37° C.
The wells were then washed six times with 0.05% by volume TWEEN 20 in PBS in order to remove unbound antibodies. Horseradish peroxidase conjugated goat anti-human IgG was used as a second antibody tracer to bind with the HCV antibody-peptide antigen complex formed in positive wells. 100 uL of peroxidase labeled goat anti-human IgG at a dilution of 1:1800 in 1% by volume normal goat serum, 0.05% by volume TWEEN 20 in PBS was added to each well and incubated at 37° C. for another 15 minutes.
The wells were washed six times with 0.05% by volume TWEEN 20 PBS to remove unbound antibody and reacted with 100 uL of the substrate mixture containing 0.04% by weight orthophenylenediamine (OPD) and 0.12% by volume hydrogen peroxide in sodium citrate buffer, pH 5.0.
This substrate mixture was used to detect the peroxidase label by forming a colored product. Reactions were stopped by the addition of 100 uL of 1.0M H2 SO4 and the A492 mm measured. Results of relative immunoreactivity for each of the peptides obtained from this study are shown in Table A using peptide II H as the reference.

The subject of assay [4] is antibodies to HCV. As to the kind of experiment: NS-5 peptide ELISA, group of 5 HCV positive sera. The note with it: for % Relative Immunoreactivity: NS-5 peptides, 5 HCV positive sera, Pep5 = 100. How it is done:
Wells of 96-well plates were coated for 1 hour at 37° C. with each of the three peptides derived from the NS-5 region of HCV (designated as pep4, pep5 and pep6).

For assay [5], the system named is antibodies to HCV. Put plainly: EIA of pep3 after different extraction conditions following HF cleavage. The note with it: for % Decrease: Pep3' versus Pep3. From the text:
Peptide extraction conditions after HF cleavage were altered to test for their effect on peptide immunopotency after HF cleavage. Pep3 (or 279A) was extracted with acetic acid at pH 2, whereas pep3' was extracted with ammonium bicarbonate at pH 8.

Assay [6] deals with antibodies to HCV. Put plainly: EIA of NS-3 peptides before and after pH adjustment. The procedure: Peptides dissolved at 1 mg/mL in H2 O, pH 4, were titrated to pH 11 by addition of diluted NaOH. After 5 min at pH 11, the pH of the peptide solution was brought down to 7.0 using diluted HCl. Immunoreactivity of the peptides thus treated was compared with reactivity prior to pH adjustment (Table 4E). Two-to three-fold increases in A492 nm were seen. Some previously non-reactive serum samples were able to react with pH adjusted peptides. For instance, serum sample 1, which is non-reactive to 261C, has an absorbance of 1401 mA when tested with the corresponding pH adjusted peptide.

Assay [7] has as its system antibodies to HCV. Put plainly: Peptide ELISA for relative immunoreactivity, 8 member HCV serum panel (Panel I). The note with it: NS-3 peptides (Tables 4B-4D), relative to pep3 (279A).
Setting [8] is: sample 1 (first line, number not given).

On to “CLTVPASAYQVRNSTGLYHVTNDCPNSSIVYEAHDAILHTPGCVPCVREGNVSRC [255C]”, for which the Absorbance in assay [1] (Panel III sample 2) amounted to 0.017; in assay [1] (Panel III sample 3), 0.235; in assay [1] (Panel III sample 4) it was 0.066; in assay [1] (Panel III sample 5), 0.711; in assay [1] (Panel III sample 6), 0.106; in assay [1] (Panel III sample 7), 0.784. In addition, the Absorbance in assay [1] (Panel III sample 8) came out at 0.037; in assay [1] (Panel III sample 9), 0.019; in assay [1] (Panel III sample 10) it was 0.313; in assay [1] (Panel III sample 11), 0.035; in assay [1] (Panel III sample 14), 0.047; in assay [1] (Panel III sample 15) it was 0.012. Moreover, the Absorbance is listed as 0.064 in assay [1] (Panel III sample 16); 0.077 in assay [1] (Panel III sample 17); 0.098 in assay [2] (setting [8]); 0.346 in assay [2] (sample 2); 0.300 in assay [2] (sample 3); 0.021 in assay [2] (sample 4). The figures for the Absorbance in assay [2] (sample 5) and in assay [2] (sample 6) were 0.231 and 0.017, respectively. Moreover, the “% Relative Immunoreactivity” value in assay [1] was found to be 51.4%.

As for “DAELIEANLLWRQEMGGNITRVESENKVVILDSFDPLVAEEDER [Pep5]”, the “% IP” value in assay [3] (Panel I) came to 47.6%. In assay [4], the “% Relative Immunoreactivity” value is given as 100.0%. Moreover, the “EIA reading per sample” value is 2.942 in assay [4] (Sample No. 1); 0.370 in assay [4] (Sample No. 2); 0.616 in assay [4] (Sample No. 3); 1.316 in assay [4] (Sample No. 4); 1.783 in assay [4] (Sample No. 5).

In the case of “DPSHITAEAAGRRLARGSPPSVASSSASQLSAPSLKATCTANHDSP [Pep4]”, in assay [3] (Panel I), the “% IP” value came out at 17.1%. In assay [4], the “% Relative Immunoreactivity” value is on record as 28.6%. Further, the “EIA reading per sample” value in assay [4] (Sample No. 1) amounted to 0.468; in assay [4] (Sample No. 2), 0.659; in assay [4] (Sample No. 3) it was 0.675; in assay [4] (Sample No. 4) it was 0.063; in assay [4] (Sample No. 5), 0.144.

For the molecule “INSTALNCNESLNTGWLAGLIYQHKFNSSGCPERLASC [246C]”, in assay [1], the “% Relative Immunoreactivity” value is recorded as 97.6%. Further, the Absorbance is 0.240 in assay [2] (setting [8]); 0.015 in assay [2] (sample 2); 0.023 in assay [2] (sample 3); 0.046 in assay [2] (sample 4); 0.009 in assay [2] (sample 5).

For the molecule “Pep3': pep3 (279A) sequence extracted with ammonium bicarbonate at pH 8 after HF cleavage (GCSGGAYDIIICDECHSTDATSILGIGTVLDQAETAG)”, the “share of the panel reactive” value in assay [3] (Panel I) is reported as “half of the panel is reactive”. The molecule further yielded a relative immunoreactivity value in assay [3] (Panel I, compared with peptide VIIIE) of 23.9%. In addition, the “absorbances of some additional reactive samples” value in assay [3] (additional reactive samples) is reported as greater than 2000 mA. The “A492 nm (mA) by EIA” value in assay [5] (NRC: Negative Control) came to 1 mA. The “% Decrease” value in assay [5] (SRC) came out at 77.6%; in assay [5] (WRC), 89.6%; in assay [5] (sample #1), 78.8%; in assay [5] (sample #2), 90.0%; in assay [5] (sample #3) it was 91.5%; in assay [5] (sample #4), 99.3%. For the same molecule, the “% Decrease” value in assay [5] (sample #5) is on record as 88.0%.

Turning to “VRNSTGLYHVTNDCPNSSIVYEAHDAILHTPGCPCVREGNVSRC [255B]”, the “% Relative Immunoreactivity” value in assay [1] was determined as 18.7%. Moreover, the Absorbance in assay [2] (sample 4) is 0.021; in assay [2] (sample 6), 0.012.

Take “WHINSTALNCNESLNTGWLAGLIYQHKFNSSGCPERLASC [246D]”: the Absorbance in assay [1] (Panel III sample 1) was 1.085; in assay [1] (Panel III sample 2), 0.068; in assay [1] (Panel III sample 3), 0.090; in assay [1] (Panel III sample 5), 0.077; in assay [1] (Panel III sample 9), 0.334; in assay [1] (Panel III sample 10) it was 1.488. In addition, the Absorbance is 0.045 in assay [1] (Panel III sample 11); 0.408 in assay [1] (Panel III sample 12); 0.451 in assay [1] (Panel III sample 13); 0.037 in assay [1] (Panel III sample 14); 0.810 in assay [1] (Panel III sample 16); 0.111 in assay [1] (Panel III sample 17). The Absorbance in assay [2] (setting [8]) is reported as 0.068; in assay [2] (sample 2), 0.028; in assay [2] (sample 3) it was 0.029; in assay [2] (sample 4), 0.049; in assay [2] (sample 5), 0.009; in assay [2] (sample 6) it was 0.102. The “% Relative Immunoreactivity” value in assay [1] is 98.6%.

B1: LVLNPSVAATLGFGAYMSKAHGIDPNIRTGVRTITTGSPITYSTYGKFLADGGCSGGAYDIIICDECHS (peptide)
chain: LVLNPSVAATLGFGAYMSKAHGIDPNIRTGVRTITTGSPITYSTYGKFLADGGCSGGAYDIIICDECHS
As to B1, the “A492 nm (mA) by EIA” value in assay [6] (serum sample 1, Ctrl (prior to pH adjustment)) is 210 mA; in assay [6] (serum sample 1, pH adj (pH 11 for 5 min, then 7.0)) it was 591 mA; in assay [6] (serum sample 2, Ctrl), 37 mA; in assay [6] (serum sample 2, pH adj), 159 mA; in assay [6] (serum sample 3, Ctrl) it was 0 mA; in assay [6] (serum sample 3, pH adj) it was 217 mA. The “A492 nm (mA) by EIA” value in assay [6] (serum sample 4, Ctrl) is 124 mA; in assay [6] (serum sample 4, pH adj), 311 mA. The “% Relative Immunoreactivity” value in assay [7] was 11.1%.
